Literature values as cited in US10105415B2, “Compositions comprising granulocyte-macrophage colony-stimulating factor for the treatment of inflammatory bowel disease” (priority 2014, dated 2018).

Assays:
[1] = given orally
[2] = oral / local
[3] = not given; remark: listed apart in the source
Crohn's disease = settings: systemic (intravenous or subcutaneous), CD patients
[4] = given subcutaneously or infused intravenously for systemic effect
[5] = system: resistant bacterial strains; settings: controlled clinical trials, oral or intravenous
[6] = adverse effect frequency
[7] = system: strains of organisms from the susceptible genera
Pseudomonas aeruginosa = settings: controlled clinical trials
[8] = system: polymorphonuclear leukocytes

Compound	bioavailability [1]	tolerability / irritation [2]	solubility in water [3]	pH of 5% solution	other results
C[C@@H]1O[C@@H]1P(=O)(O)O [Fosfomycin calcium monohydrate]	≥ 12%	less irritating to the stomach	sparingly soluble in water	–	pH of 0.4% solution (0.4% solution): 8.1-9.6
C[C@@H]1O[C@@H]1P(=O)(O)O [Fosfomycin disodium]	high bioavailability	locally irritant if un-neutralized	highly soluble in water	9.0-10.5	–
C[C@@H]1O[C@@H]1P(=O)(O)O.NC(CO)(CO)CO [Fosfomycin trometamol]	about 40%	well tolerated	highly soluble in water	3.5-5.5	–
GM-CSF: Monomeric glycoprotein of 127 amino-acid residues (SEQ ID NO: 2), colony-stimulating factor; recombinant forms regramostim, sargramostim, molgramostim	–	–	–	–	primary therapeutic endpoints (Crohn's disease): failed to achieve their primary therapeutic endpoints; plasma concentrations achieved [4]: > 1 ng/mL
C[C@@H]1O[C@@H]1P(=O)(O)O [Fosfomycin, [(2R,3S)-3-methyloxiran-2-yl]phosphonic acid]	–	–	–	–	appearance of resistant bacterial strains, overall [5]: 3.0%; eosinophilia [6]: 0.2%; transient rashes (evidence of allergy) [6]: 0.3 % of cases; transiently raised liver enzymes [6]: 0.3 % of cases; synergistic effect, share of tested strains ([7]; early studies, various antibiotic combinations): 70-100%; synergy rates ([7]; subsequent more extensive studies): 36-74%; appearance of resistant bacterial strains, maximum (Pseudomonas aeruginosa): ≤ 15%; concentration in polymorphonuclear leukocytes relative to extracellular fluid [8]: twice
